Results: paper PMC11859928, “Design, Synthesis, and Antiproliferative Activity of Novel Indole/1,2,4-Triazole Hybrids as Tubulin Polymerization Inhibitors” (Pharmaceuticals, 2025)
Where two headings read alike, the source gives them in different places.

Legend:
IGROV1 [1] = assay: NCI one-dose assay; type: cell-based; conditions: Homo sapiens, IGROV-1, IGROV1, Ovarian cancer, read-out: Cell growth inhibition %
LOX IMVI [2] = assay: NCI one-dose assay; type: cell-based; conditions: Homo sapiens, Melanoma, read-out: Cell growth inhibition %
MALME-3M = assay: NCI one-dose assay; type: cell-based; conditions: Homo sapiens, Melanoma, read-out: Cell growth inhibition %
MDA-MB-435 = assay: NCI one-dose assay; type: cell-based; conditions: Homo sapiens, MDA-MB-435, Melanoma, read-out: Cell growth inhibition %
NCI-H226 = assay: NCI one-dose assay; type: cell-based; conditions: Homo sapiens, NCI-H226, Non-small cell lung cancer, read-out: Cell growth inhibition %
NCI-H23 = assay: NCI one-dose assay; type: cell-based; conditions: Homo sapiens, NCI-H23, Non-small cell lung cancer, read-out: Cell growth inhibition %
NCI-H460 = assay: NCI one-dose assay; type: cell-based; conditions: Homo sapiens, NCI-H460, Non-small cell lung cancer, read-out: Cell growth inhibition %
NCI/ADR-RES = assay: NCI one-dose assay; type: cell-based; conditions: Homo sapiens, Ovarian cancer, read-out: Cell growth inhibition %
OVCAR-5 = assay: NCI one-dose assay; type: cell-based; conditions: Homo sapiens, OVCAR-5, Ovarian cancer, read-out: Cell growth inhibition %
OVCAR-8 = assay: NCI one-dose assay; type: cell-based; conditions: Homo sapiens, OVCAR-8, Ovarian cancer, read-out: Cell growth inhibition %
PC-3 = assay: NCI one-dose assay; type: cell-based; conditions: Homo sapiens, PC-3, Prostate cancer, read-out: Cell growth inhibition %
RPMI-8226 = assay: NCI one-dose assay; type: cell-based; conditions: Homo sapiens, RPMI-8226, Leukemia, read-out: Cell growth inhibition %
SF-539 = assay: NCI one-dose assay; type: cell-based; conditions: Homo sapiens, SF-539, CNS cancer, read-out: Cell growth inhibition %
SK-MEL-5 = assay: NCI one-dose assay; type: cell-based; conditions: Homo sapiens, SK-MEL-5, Melanoma, read-out: Cell growth inhibition %
SNB-75 = assay: NCI one-dose assay; type: cell-based; conditions: Homo sapiens, SNB-75, CNS cancer, read-out: Cell growth inhibition %
TK-10 = assay: NCI one-dose assay; type: cell-based; conditions: Homo sapiens, TK-10, Renal cancer, read-out: Cell growth inhibition %
U251 = assay: NCI one-dose assay; type: cell-based; conditions: Homo sapiens, U-251, U251, CNS cancer, read-out: Cell growth inhibition %
UACC-62 = assay: NCI one-dose assay; type: cell-based; conditions: Homo sapiens, UACC-62, Melanoma, read-out: Cell growth inhibition %
786-0 = assay: NCI one-dose assay; type: cell-based, human; conditions: for inhibition at 10 µM: Homo sapiens, 786-0, 786-0, Renal cancer, read-out: Cell growth inhibition %
Procedure: (§1) The National Cancer Institute (NCI), Bethesda, USA, selected the final compounds 6a–j and 7a–j for in vitro anticancer screening. An initial in vitro single-dose anticancer experiment was performed with the entire NCI 60 cell lines derived from nine tumor subpanel cancer cell lines. The results for each compound were illustrated as a mean graph showing the percentage growth of treated cells compared to untreated control cells (see Supplementary Materials).
(§2) The NCI anticancer screening process has been thoroughly detailed. The Drug Evaluation Branch of the National Cancer Institute in Bethesda, […], USA, established the procedure and conducted the anticancer assay on 60 human tumor cell lines from nine neoplastic cancers.

A498 = assay: NCI one-dose assay; type: cell-based, human; conditions: for inhibition at 10 µM: Homo sapiens, A498, A498, Renal cancer, read-out: Cell growth inhibition %
Procedure: as §1, §2

HOP-92 = assay: NCI one-dose assay; type: cell-based, human; conditions: Homo sapiens, HOP-92, HOP-92, Non-small cell lung cancer, read-out: Cell growth inhibition %
Procedure: as §1, §2

UO-31 = assay: NCI one-dose assay; type: cell-based, human; conditions: Homo sapiens, UO-31, UO-31, Renal cancer, read-out: Cell growth inhibition %
Procedure: as §1, §2

MOLT-4 = assay: NCI five-dose assay; type: cell-based, human; conditions: for GI50 / CC50: Homo sapiens; for GI50: read-out: GI50 Conc. per Cell Lines; for CC50: read-out: LC50 (the source's name)
LOX IMVI [3] = assay: NCI five-dose assay; type: cell-based, human; conditions: for GI50 / CC50: Homo sapiens; for GI50: read-out: GI50 Conc. per Cell Lines; for CC50: read-out: LC50 (the source's name)
SK-MEL-2 = assay: NCI five-dose assay; type: cell-based, human; conditions: for GI50 / CC50: Homo sapiens; for GI50: read-out: GI50 Conc. per Cell Lines; for CC50: read-out: LC50 (the source's name)
IGROV1 [4] = assay: NCI five-dose assay; type: cell-based, human; conditions: for GI50 / CC50: Homo sapiens, IGROV-1; for GI50: read-out: GI50 Conc. per Cell Lines; for CC50: read-out: LC50 (the source's name)
ACHN = assay: NCI five-dose assay; type: cell-based, human; conditions: for LC50 / GI50: Homo sapiens; for GI50: read-out: GI50 Conc. per Cell Lines
Ovarian cancer subpanel = assay: NCI five-dose assay, subpanel mean; type: cell-based, human; conditions: for GI50: Homo sapiens, read-out: GI50 Subpanel MID b; for GI50 Selectivity Ratio (MID a/MID b): Ovarian cancer subpanel
Breast cancer subpanel = assay: NCI five-dose assay, subpanel mean; type: cell-based, human; conditions: for GI50 Selectivity Ratio (MID a/MID b): Breast cancer subpanel; for GI50: Homo sapiens, read-out: GI50 Subpanel MID b
NCI 60 cell lines = assay: NCI one-dose assay, full panel; type: cell-based, human; conditions: Homo sapiens, 60 cell, read-out: cell growth inhibition percentage, range
Procedure: as §1, §2

## O/N=C(\CSc1nnc(-c2c[nH]c3ccccc23)n1-c1ccccc1)c1ccc(Cl)cc1 [Compound 7j, (Z)-2-((5-(1H-Indol-3-yl)-4-phenyl-4H-1,2,4-triazol-3-yl)thio)-1-(4-chlorophenyl) Ethanone Oxime]
IGROV1 [1]
  inhibition at 10 µM: 134%
LOX IMVI [2]
  inhibition at 10 µM: 189%
MALME-3M
  inhibition at 10 µM: 88.9%
MDA-MB-435
  inhibition at 10 µM: 200%
NCI-H226
  inhibition at 10 µM: 85.7%
NCI-H23
  inhibition at 10 µM: 52.7%
NCI-H460
  inhibition at 10 µM: 89.5%
NCI/ADR-RES
  inhibition at 10 µM: 170%
OVCAR-5
  inhibition at 10 µM: 143%
OVCAR-8
  inhibition at 10 µM: 93.6%
PC-3
  inhibition at 10 µM: 138%
RPMI-8226
  inhibition at 10 µM: 113%
SF-539
  inhibition at 10 µM: 70.5%
SK-MEL-5
  inhibition at 10 µM: 78.8%
SNB-75
  inhibition at 10 µM: 52%
TK-10
  inhibition at 10 µM: 123%
U251
  inhibition at 10 µM: 69.5%
UACC-62
  inhibition at 10 µM: 143%
786-0
  inhibition at 10 µM: 65.9%
A498
  inhibition at 10 µM: 16.3%
HOP-92
  inhibition at 10 µM: 108%
UO-31
  inhibition at 10 µM: 65.6%
MOLT-4; MOLT-4, five dose levels
  GI50: 2.16 µM
  CC50: > 100 µM
  TGI Conc. per Cell Lines: 5.69 µM
LOX IMVI [3]; five dose levels
  GI50: 1.72 µM
  CC50: 17.4 µM
  TGI Conc. per Cell Lines: 3.12 µM
SK-MEL-2; SK-MEL-2, five dose levels
  GI50: 3.64 µM
  CC50: > 100 µM
IGROV1 [4]; IGROV1, five dose levels
  GI50: 5.35 µM
  CC50: > 100 µM
  TGI Conc. per Cell Lines: 19.8 µM
ACHN; five dose levels
  LC50: > 100 µM
  GI50: 3.69 µM
  TGI Conc. per Cell Lines: 14.5 µM
Ovarian cancer subpanel; Ovarian cancer, average sensitivity of all cell lines of the subpanel
  GI50: 3.61 µM
Ovarian cancer subpanel
  GI50 Selectivity Ratio (MID a/MID b): 1.01
Breast cancer subpanel
  GI50 Selectivity Ratio (MID a/MID b): 1.24
Breast cancer subpanel; Breast cancer, average sensitivity of all cell lines of the subpanel
  GI50: 2.93 µM
NCI 60 cell lines; six cell lines with moderate activity
  inhibition at 10 µM: 52 to 66%
NCI 60 cell lines; twenty-eight cell lines with total cell death
  inhibition at 10 µM: 102 to 200%
NCI 60 cell lines; twenty-four cell lines
  inhibition at 10 µM: 69.5 to 99.3%

## O/N=C(\CSc1nnc(-c2c[nH]c3ccccc23)n1-c1ccccc1)c1ccc(Br)cc1 [Compound 7i, (Z)-2-((5-(1H-Indol-3-yl)-4-phenyl-4H-1,2,4-triazol-3-yl)thio)-1-(4-bromophenyl) Ethanone Oxime]
IGROV1 [1]
  inhibition at 10 µM: 165%
LOX IMVI [2]
  inhibition at 10 µM: 187%
MALME-3M
  inhibition at 10 µM: 110%
MDA-MB-435
  inhibition at 10 µM: 200%
NCI-H226
  inhibition at 10 µM: 93.7%
NCI-H23
  inhibition at 10 µM: 85.9%
NCI-H460
  inhibition at 10 µM: 122%
NCI/ADR-RES
  inhibition at 10 µM: 174%
OVCAR-5
  inhibition at 10 µM: 183%
OVCAR-8
  inhibition at 10 µM: 142%
PC-3
  inhibition at 10 µM: 164%
RPMI-8226
  inhibition at 10 µM: 113%
SF-539
  inhibition at 10 µM: 165%
SK-MEL-5
  inhibition at 10 µM: 124%
SNB-75
  inhibition at 10 µM: 120%
TK-10
  inhibition at 10 µM: 183%
U251
  inhibition at 10 µM: 90.3%
UACC-62
  inhibition at 10 µM: 190%
786-0; 786-0, Renal cancer, 10 µM
  Cell growth inhibition %: 65.25%
786-0
  inhibition at 10 µM: 65%
A498; A498, Renal cancer, 10 µM
  Cell growth inhibition %: 37.85%
A498
  inhibition at 10 µM: 38%
HOP-92
  inhibition at 10 µM: 111%
UO-31
  inhibition at 10 µM: 96.4%
MOLT-4; MOLT-4, Leukemia, 48 h
  CC50: > 100 µM
MOLT-4; MOLT-4, Leukemia
  GI50: 2.09 µM
  TGI Conc. per Cell Lines: 4.80 µM
LOX IMVI [3]; Melanoma, 48 h
  CC50: 5.69 µM
LOX IMVI [3]; Melanoma
  GI50: 1.71 µM
  TGI Conc. per Cell Lines: 3.12 µM
SK-MEL-2; SK-MEL-2, Melanoma, 48 h
  CC50: 37.5 µM
SK-MEL-2; SK-MEL-2, Melanoma
  GI50: 3.1 µM
  TGI Conc. per Cell Lines: 10.4 µM
IGROV1 [4]; IGROV1, Ovarian cancer, 48 h
  CC50: 38.3 µM
IGROV1 [4]; IGROV1, Ovarian cancer
  GI50: 3.41 µM
  TGI Conc. per Cell Lines: 11.70 µM
ACHN; Renal cancer, 48 h
  LC50: 24.9 µM
ACHN; Renal cancer
  GI50: 2.53 µM
  TGI Conc. per Cell Lines: 7.05 µM
Ovarian cancer subpanel; average sensitivity of all cell lines of the Ovarian cancer subpanel
  GI50: 2.79 µM
Ovarian cancer subpanel
  GI50 Selectivity Ratio (MID a/MID b): 1.00
Breast cancer subpanel
  GI50 Selectivity Ratio (MID a/MID b): 1.02
Breast cancer subpanel; average sensitivity of all cell lines of the Breast cancer subpanel
  GI50: 2.73 µM
NCI 60 cell lines; eight cell lines
  inhibition at 10 µM: 86 to 99%
NCI 60 cell lines; forty-nine cell lines with complete cell death
  inhibition at 10 µM: 106 to 200%
